This passage reports Eff. %, logP and chromatographic logP results from US9249104B2, “Pyrazole indanyl carboxamides” (BAYER CROPSCIENCE AG, priority 2012, dated 2016).

In series [1] the test system is Alternaria brassicae. Briefly: In vivo preventive test on Alternaria brassicae (leaf spot on radish). The note with it: 500 ppm, radish plants sprayed 24 h before contamination, graded 6 days after contamination. The method, then: Radish plants (“Pernod Clair” variety), sown in starter cups on a 50/50 peat soil-pozzolana substrate and grown at 17° C., are treated at the cotyledon stage by spraying with the active ingredient prepared as described above. Plants, used as controls, are treated with the mixture of acetone/tween/DMSO/water not containing the active material. After 24 hours, the plants are contaminated by spraying the cotyledons with an aqueous suspension of Alternaria brassicae spores (50 000 spores per ml). The spores are collected from a 15-day-old culture. The contaminated radish plants are incubated at 20° C. and at 100% relative humidity. Grading (% of efficacy) is carried out 6 days after the contamination, in comparison with the control plants.

For series [2], the system named is Sphaerotheca fuliginea. In words: In vivo preventive test on Sphaerotheca fuliginea (powdery mildew on cucurbits). As to conditions: graded 12 days after contamination. The method, then: Gherkin plants (“Vert petit de Paris” variety), sown in starter cups on a 50/50 peat soil-pozzolana substrate and grown at 24° C., are treated at the Z11 cotyledon stage by spraying with the active ingredient prepared as described above. Plants, used as controls, are treated with the mixture of acetone/tween/DMSO/water not containing the active material. After 24 hours, the plants are contaminated by spraying the cotyledons with an aqueous suspension of Sphaerotheca fuliginea spores (100 000 spores per ml). The spores are collected from infected plants. […] Grading (% of efficacy) is carried out 12 days after the contamination, in comparison with the control plants.

For series [3], the system named is Puccinia recondita. Briefly: In vivo preventive test on Puccinia recondita (brown rust on wheat). The note with it: graded 12 days after contamination. The method, then:
Wheat plants (“Scipion” variety), sown in starter cups on a 50/50 peat soil-pozzolana substrate and grown at 22° C., are treated at the 1-leaf stage (10 cm height) by spraying with the active ingredient prepared as described above. Plants, used as controls, are treated with the mixture of acetone/tween/DMSO/water not containing the active material. After 24 hours, the plants are contaminated by spraying the leaves with an aqueous suspension of Puccinia recondita spores (100 000 spores per ml). The spores are collected from an infected plant and are suspended in water to containing 2.5 ml/l of Tween 80 at 10%. […] Grading (% of efficacy) is carried out 12 days after the contamination, in comparison with the control plants.

In series [4] the test system is Septoria tritici. Briefly: In vivo preventive test on Septoria tritici (leaf spot on wheat). As to conditions: 500 ppm, wheat plants sprayed 24 h before contamination, graded 24 days after contamination. The protocol:
Wheat plants (“Scipion” variety), sown in starter cups on a 50/50 peat soil-pozzolana substrate and grown at 22° C., are treated at the 1-leaf stage (10 cm height) by spraying with the active ingredient prepared as described above. Plants, used as controls, are treated with the mixture of acetone/tween/DMSO/water not containing the active material. After 24 hours, the plants are contaminated by spraying the leaves with an aqueous suspension of cryopreserved Septoria tritici spores (500 000 spores per ml). The contaminated wheat plants are incubated for 72 hours at 18° C. and at 100% relative humidity, and then for 21 days at 90% relative humidity. Grading (% of efficacy) is carried out 24 days after the contamination, in comparison with the control plants.

The test system of series [5] is Uromyces appendiculatus. In words: In vivo preventive test on Uromyces appendiculatus (bean rust). The note with it: bean plants. The method, then:
Bean plants (“Saxa” variety), sown in starter cups on a 50/50 peat soil-pozzolana substrate and grown at 24° C., are treated at the 2-leaf stage (9 cm height) by spraying with the active ingredient prepared as described above. Plants, used as controls, are treated with the mixture of acetone/tween/DMSO/water not containing the active material. After 24 hours, the plants are contaminated by spraying the leaves with an aqueous suspension of Uromyces appendiculatus spores (150 000 spores per ml). The spores are collected from infected plants and are suspended in water containing 2.5 ml/1 of Tween 80 at 10%. […] Grading (% of efficacy) is carried out 11 days after the contamination, in comparison with the control plants.

The test system of series [6] is Pyrenophora teres. In words: In vivo preventive test on Pyrenophora teres (net blotch on barley). The note with it: graded 14 days after contamination. The method, then:
Barley plants (“Plaisant” variety), sown in starter cups on a 50/50 peat soil-pozzolana substrate and grown at 22° C., are treated at the 1-leaf stage (10 cm height) by spraying with the active ingredient prepared as described above. Plants, used as controls, are treated with the mixture of acetone/tween/DMSO/water not containing the active material. After 24 hours, the plants are contaminated by spraying the leaves with an aqueous suspension of Pyrenophora teres spores (12 000 spores per ml). The spores are collected from a 12-day-old culture. […] Grading (% of efficacy) is carried out 14 days after the contamination, in comparison with the control plants.

Series [7] is described as follows: logP by HPLC on reversed phase columns (EEC directive 79/831 Annex V.A8). As to conditions: for logP: method [a]: LC-MS at pH 2.7, 0.1% formic acid in water / acetonitrile, compounds of formula (I), Table 1; for chromatographic logP: pH 2.7. Format: physicochemical.
Setting [8] is: 500 ppm, gherkin plants sprayed 24 h before contamination.
The mark [9] stands for this setting: 500 ppm, wheat plants sprayed 24 h before contamination.
Setting [10] is: preventive, dose of 500 ppm, grading 11 days after contamination.
[11] abbreviates: 500 ppm, barley plants sprayed 24 h before contamination.
The mark [12] stands for this setting: 100 ppm, graded 11 days after contamination.

With `CON=C1c2cccc(NC(=O)c3cn(C)nc3C(F)F)c2CC1(C)C` (mixture of isomers) [Example 32], the Eff. % in series [1] is reported as 75%; in series [2] (setting [8]), 98%; in series [3] (setting [9]), 93%; in series [4], 100%.
Consider `CC(C)C1Cc2c(NC(=O)c3c(C(F)(F)F)nn(C)c3F)cccc2C1(C)C` (racemic) [Example 66], for which the Eff. % in series [1] came out at 79%; in series [5] (setting [10]), 100%; in series [6] (setting [11]), 83%; in series [2] (setting [8]) it was 98%; in series [3] (setting [9]), 98%. Besides, the logP in series [7] was 4.82[a].
Consider `Cc1nn(C)c(Cl)c1C(=O)Nc1cccc2c1CC(C(C)C)C2(C)C` (racemic) [Example 69], for which the Eff. % in series [5] (setting [10]) is 100%; in series [6] (setting [11]) it was 75%; in series [2] (setting [8]), 72%; in series [3] (setting [9]), 88%. Besides, the logP in series [7] is 4.76[a].
Take `CCC1(CC)Cc2c(NC(=O)c3cn(C)nc3C(F)F)cccc2C1C` (racemic) [Example 79]: the Eff. % in series [1] was 95%; in series [5] (setting [10]) it was 100%; in series [2] (setting [8]), 100%; in series [3] (setting [9]), 98%; in series [4] it was 98%. Also, the logP in series [7] is 4.27[a].
With `CC(C)C1Cc2c(NC(=S)c3cn(C)nc3C(F)(F)F)cccc2C1(C)C` (racemic) [Example 86], the Eff. % in series [5] (setting [12]) stood at 100%; in series [6] (100 ppm, barley plants), 100%; in series [2] (100 ppm, gherkin plants), 100%; in series [3] (100 ppm, wheat plants), 100%. Also, the logP in series [7] is 4.78[a].
`CC(C)CC1Cc2cccc(NC(=O)c3cn(C)nc3C(F)F)c2C1` (stereo not drawn) [Example 4]: the Eff. % in series [1] came out at 93%; in series [5] (setting [10]), 100%; in series [2] (setting [8]), 70%; in series [3] (setting [9]), 93%; in series [4], 85%.
For `CC1c2cccc(NC(=O)c3cn(C)nc3C(F)F)c2CC12CCCC2` (stereo not drawn) [Example 10, 3-(difluoromethyl)-1-methyl-N-(1′-methyl-1′,3′-dihydrospiro[cyclopentane-1,2′-inden]-4′-yl)-1H-pyrazole-4-carboxamide], the Eff. % in series [1] is listed as 93%; in series [5] (setting [10]), 100%; in series [6] (setting [11]), 83%; in series [2] (setting [8]), 100%; in series [3] (setting [9]), 97%; in series [4], 100%. For the same compound, the chromatographic logP (in general, a lipophilicity value derived from retention on a column) in series [7] was found to be 3.96.
`CC1c2cccc(NC(=O)c3cn(C)nc3C(F)(F)F)c2CC1(C)C` (stereo not drawn) [Example 15]: the Eff. % in series [1] turned out to be 86%; in series [5] (setting [10]) it was 100%; in series [2] (setting [8]), 100%; in series [3] (setting [9]) it was 96%. Also, in series [7], the logP was 3.74[a].
On to `CCc1c(C(=O)Nc2cccc3c2CC(C)C3(C)C)cnn1C` (stereo not drawn) [Example 20], for which the Eff. % turned out to be 97% in series [1], 100% in series [6] (setting [11]) and 97% in series [4]. Further, the logP in series [7] is 3.37[a].
With `Cn1cc(C(=O)Nc2cccc3c2CC2CCCCC32)c(C(F)F)n1` (stereo not drawn) [Example 24], the Eff. % was found to be 100% in series [5] (setting [10]), 86% in series [6] (setting [11]) and 89% in series [3] (setting [9]). The logP in series [7] is 3.81[a].
`Cn1cc(C(=O)Nc2cccc3c2CC2(CCCC2)C3)c(C(F)F)n1` [Example 25]: the Eff. % is reported as 71% in series [1]; 100% in series [5] (setting [10]); 71% in series [6] (setting [11]); 95% in series [2] (setting [8]); 94% in series [3] (setting [9]). Further, the logP in series [7] is 3.74[a].
`CCC1Cc2cccc(NC(=O)c3cn(C)nc3C(F)F)c2C1` (stereo not drawn) [Example 27]: the Eff. % in series [1] was found to be 79%; in series [5] (setting [10]), 100%; in series [6] (setting [11]), 97%; in series [2] (setting [8]), 100%; in series [3] (setting [9]), 100%; in series [4], 100%. In addition, the logP in series [7] is 3.35[a].
With `CC1c2c(NC(=O)c3cn(C)nc3C(F)(F)F)cccc2C(C)(C)C1C` (stereo not drawn) [Example 31], the Eff. % in series [1] is listed as 80%; in series [5] (setting [10]) it was 100%; in series [2] (setting [8]) it was 72%; in series [3] (setting [9]), 94%; in series [4], 79%. In series [7], the logP was 3.76[a].
`CCC1Cc2c(NC(=O)c3cn(C)nc3C(F)F)cccc2C1(C)C` (stereo not drawn) [Example 36]: the Eff. % in series [5] (setting [10]) was determined as 100%; in series [6] (setting [11]) it was 75%; in series [2] (setting [8]), 100%; in series [3] (setting [9]) it was 98%; in series [4] it was 86%. The logP in series [7] is 3.96[a].
Regarding `CCC1Cc2c(NC(=O)c3c(C)nn(C)c3C)cccc2C1(C)C` (stereo not drawn) [Example 38], the Eff. % in series [1] stood at 80%; in series [5] (setting [10]) it was 100%; in series [3] (setting [9]) it was 100%. In addition, the logP in series [7] is 3.55[a].
`CC(C)C1Cc2c(NC(=O)c3cn(C)nc3C(F)F)cccc2C1(C)C` (stereo not drawn) [Example 39]: the Eff. % came to 98% in series [1]; 100% in series [5] (setting [10]); 100% in series [2] (setting [8]); 98% in series [3] (setting [9]); 71% in series [4]. For the same compound, in series [7], the logP is 4.27[a].
As for `CC(C)C1Cc2c(NC(=O)c3cn(C)nc3C(F)(F)F)cccc2C1(C)C` (stereo not drawn) [Example 40], the Eff. % in series [1] came out at 89%; in series [5] (setting [10]), 100%; in series [2] (setting [8]), 100%; in series [3] (setting [9]), 98%; in series [4], 93%. For the same compound, the logP in series [7] was 4.46[a].
For the compound `Cc1nn(C)c(F)c1C(=O)Nc1cccc2c1CC(C(C)C)C2(C)C` (stereo not drawn) [Example 41], the Eff. % in series [1] was 78%; in series [5] (setting [10]), 100%; in series [2] (setting [8]), 100%; in series [3] (setting [9]) it was 100%; in series [4], 71%. Moreover, the logP in series [7] is 4.34[a].
In the case of `CCC1Cc2c(NC(=O)c3c(C(F)(F)F)nn(C)c3F)cccc2C1(C)C` (stereo not drawn) [Example 50], the Eff. % in series [1] was 88%; in series [5] (setting [10]) it was 100%; in series [2] (setting [8]), 98%; in series [3] (setting [9]), 98%. For the same compound, in series [7], the logP is 4.51[a].
Turning to `CC(C)C1Cc2c(NC(=S)c3cn(C)nc3C(F)F)cccc2C1(C)C` (stereo not drawn) [Example 77, 3-(difluoromethyl)-N-(2-isopropyl-1,1-dimethyl-2,3-dihydro-1H-inden-4-yl)-1-methyl-1H-pyrazole-4-carbothioamide], the Eff. % in series [5] (setting [12]) is 100%; in series [6] (100 ppm, barley plants) it was 100%; in series [2] (100 ppm, gherkin plants) it was 100%; in series [3] (100 ppm, wheat plants), 100%. The chromatographic logP in series [7] amounted to 4.54.
